Experiment [1] has as its system Rattus norvegicus. Put plainly: Alanine transaminase level was measured in rats after administration intravenously at a dose(bolus) of 20 umol/kg. Type of experiment: functional, organism-based. Also on record: unit not given here.
The nature of experiment [2]: Inhibition of Coagulation factor I.
The target in a further experiment is Prothrombin (Homo sapiens, UniProt P00734). In words: Binding affinity towards thrombin was tested.
The nature of experiment [3]: Selectivity ratio for binding to factor I (IC50) and thrombin (Ki).
The target in experiment [4] is Thrombin and coagulation factor X (Homo sapiens) (UniProt P00734+P00742). In words: Selectivity ratio for binding to factor Xa (Ki) and thrombin (Ki). The class given is protein assay.
Thrombin and coagulation factor X (Homo sapiens), sequence (P00742 whole entry, looked up, other chains not shown): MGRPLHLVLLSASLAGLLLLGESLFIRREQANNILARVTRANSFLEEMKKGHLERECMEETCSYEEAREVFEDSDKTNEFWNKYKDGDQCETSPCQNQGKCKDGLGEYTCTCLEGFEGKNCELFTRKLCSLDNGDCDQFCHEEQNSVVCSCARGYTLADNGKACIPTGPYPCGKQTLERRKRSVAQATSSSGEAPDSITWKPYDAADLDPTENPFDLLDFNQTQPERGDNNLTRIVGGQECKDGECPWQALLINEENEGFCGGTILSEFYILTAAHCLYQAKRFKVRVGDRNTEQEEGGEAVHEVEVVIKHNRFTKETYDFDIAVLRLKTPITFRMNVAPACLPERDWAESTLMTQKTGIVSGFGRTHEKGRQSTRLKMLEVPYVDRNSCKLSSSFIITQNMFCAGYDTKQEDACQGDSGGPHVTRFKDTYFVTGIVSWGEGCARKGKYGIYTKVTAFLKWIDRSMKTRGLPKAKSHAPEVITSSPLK
A further experiment has as its target Coagulation factor X (Homo sapiens, UniProt P00742). Put plainly: Binding affinity towards coagulation factor Xa.
In experiment [5] the test system is Rattus norvegicus. Put plainly: Effect of factor I selectivity on hypotension was evaluated in rats after administration intravenously at a dose(bolus) of 2 umol/kg. The class given is functional.
In experiment [6] the test system is Rattus norvegicus. Put plainly: Effect of factor I selectivity on hypotension was evaluated in rats after administration intravenously at a dose(bolus) of 20umol/Kg, activity expressed as drop in blood pressure. The class given is functional.
Experiment [7] relates to Rattus norvegicus. In words: Effect of factor I selectivity on hypotension was evaluated in rats after administration intravenously at a dose(bolus) of 20umol/Kg, activity expressed as drop in blood pressure; No effect. The class given is functional, organism-based.

The source made the active and inactive calls. The rule behind the calls is not given here. Some results are limits rather than exact numbers.

24 compounds from ChEMBL document CHEMBL1130738, “Rational design of boropeptide thrombin inhibitors: beta, beta-dialkyl-phenethylglycine P2 analogs of DuP 714 with greater selectivity over complement factor I and an improved safety profile” (Bioorg Med Chem Lett, 1998) can be followed below.

A word on the IC50: it is the concentration that inhibits the measured activity by half. Broadly, the Ki is a measure of affinity in units of concentration, obtained from inhibition or displacement.

Coagulation factor X, sequence (P00742 41-179 limits assumed): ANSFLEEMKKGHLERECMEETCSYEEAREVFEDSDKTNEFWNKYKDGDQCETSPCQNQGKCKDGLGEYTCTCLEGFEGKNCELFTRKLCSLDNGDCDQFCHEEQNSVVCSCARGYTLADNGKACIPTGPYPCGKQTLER
Coagulation factor X, sequence (P00742 235-488 limits assumed): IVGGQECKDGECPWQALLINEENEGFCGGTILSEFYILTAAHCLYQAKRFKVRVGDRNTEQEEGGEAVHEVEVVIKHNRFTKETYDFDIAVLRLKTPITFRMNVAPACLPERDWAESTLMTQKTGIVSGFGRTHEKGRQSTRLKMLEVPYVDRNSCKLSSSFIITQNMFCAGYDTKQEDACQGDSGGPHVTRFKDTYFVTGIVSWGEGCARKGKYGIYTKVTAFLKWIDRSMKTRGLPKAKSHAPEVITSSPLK

The compound `NCCCCC(NC(=O)CN(CCc1ccccc1)C(=O)CCc1ccccc1)B(O)O` (stereo unspecified) returned a Level in the experiment on Rattus norvegicus [1] of 60. In experiment [2], the IC50 was determined as 1500 nM. The Ki at Prothrombin was 0.42 nM; at Coagulation factor X, 130 nM. Besides, the Ratio in [3] worked out at 3570; in [4], 310.
Regarding `CC(C)(CN(CC(=O)NC(CCCCN)B(O)O)C(=O)CCc1ccccc1)c1ccccc1` (stereo unspecified), in the experiment with Rattus norvegicus [1], the Level was found to be 53. The same compound showed an IC50 in [2] of 1300 nM. Moreover, the Ki is 0.36 nM on Prothrombin and 320 nM at Coagulation factor X. For the same compound, the Ratio was 3610 in experiment [3] and 889 in experiment [4].
As to `N/C=N/CCCC(NC(=O)CN(CCc1ccccc1)C(=O)CCc1ccccc1)B(O)O` (stereo unspecified), the Level with Rattus norvegicus [1] turned out to be 55. The same compound showed an IC50 in experiment [2] of 2730 nM. Moreover, the Ratio in experiment [3] was 3070; in experiment [4], 25.
For the compound `Cc1cc(C)cc(CCN(CC(=O)NC(CCCN=C(N)N)B(O)O)C(=O)CCc2ccccc2)c1` (stereo unspecified), the IC50 in experiment [2] is less than 40 nM. Further, the values for the Ratio in experiment [3] and in [4] were less than 69 and 26, respectively.
Turning to `NCCCCC(NC(=O)CN(CC1(c2ccccc2)CCCC1)C(=O)CCc1ccccc1)B(O)O` (stereo unspecified), the Level in the experiment on Rattus norvegicus [1] came out at 66. The compound also showed an IC50 in experiment [2] of 19000 nM. The Ki on Prothrombin is 2.4 nM; on Coagulation factor X, 1390 nM. Also, the results for the Ratio in [3] and in [4] were 7920 and 579, respectively.
`Cc1cc(C)cc(CCN(CC(=O)NC(CCCCN)B(O)O)C(=O)CCc2ccccc2)c1` (stereo unspecified) registered an IC50 in [2] of 170 nM. The Ki on Prothrombin was 0.28 nM; at Coagulation factor X, 54 nM. Besides, the Ratio worked out at 607 in experiment [3] and 193 in experiment [4].
The compound `Cc1cc(C)cc(C(C)(C)CN(CC(=O)NC(CCC/N=C/N)B(O)O)C(=O)CCc2ccccc2)c1` (stereo unspecified) displayed a Level with Rattus norvegicus [1] of 70. This compound yielded an IC50 in experiment [2] of 2390 nM. In addition, the Ki at Prothrombin was 0.53 nM; on Coagulation factor X, 392 nM. Besides, the Ratio in experiment [3] turned out to be 4510; in experiment [4] it was 740.
In the experiment with Rattus norvegicus [1], `Cc1cc(C)cc(C(C)(C)CN(CC(=O)NC(CCCCN)B(O)O)C(=O)CCc2ccccc2)c1` (stereo unspecified) yielded a Level of 78. For the same compound, the IC50 in experiment [2] is 2450 nM. Moreover, the values for the Ki on Prothrombin and at Coagulation factor X were 0.41 nM and 810 nM, respectively. The Ratio in [3] came to 5980; in [4], 1980.
Regarding `N/C=N/CCCC(NC(=O)CN(CC1(c2ccccc2)CCCC1)C(=O)CCc1ccccc1)B(O)O` (stereo unspecified), in the experiment on Rattus norvegicus [1], the Level was found to be 60. The same compound registered an IC50 in experiment [2] greater than 50000 nM. In addition, the figures for the Ratio in experiment [3] and in experiment [4] were greater than 16700 and 210, respectively.
Take `CC(=O)N[C@H](Cc1ccccc1)C(=O)N1CCC[C@H]1C(=O)N[C@@H](CCCN=C(N)N)B(O)O.Cl`: the BP with Rattus norvegicus [5] was greater than 40 mmHg. In [2], this compound displayed an IC50 of 10 nM.
For `CC(C)(CN(CC(=O)NC(CCCNC(=N)N)B(O)O)C(=O)CCc1ccccc1)c1ccccc1` (stereo unspecified), the Ki at Prothrombin came to 0.06 nM; on Coagulation factor X, 99 nM.
`NCCCCC(NC(=O)CN(CC1(c2ccccc2)CC1)C(=O)CCc1ccccc1)B(O)O` (stereo unspecified): the Level with Rattus norvegicus [1] was found to be 60. The compound further had an IC50 in [2] of 4300 nM. In addition, the Ki is 0.43 nM on Prothrombin and 438 nM at Coagulation factor X. Moreover, the Ratio in experiment [3] was 10000; in experiment [4], 1020.
Consider `Cc1cc(C)cc(CCN(CC(=O)NC(CCC/N=C/N)B(O)O)C(=O)CCc2ccccc2)c1` (stereo unspecified), for which the midpoint of inhibition in experiment [2], the IC50, lay at 400 nM. Also, the figures for the Ratio in experiment [3] and in [4] were 1080 and 81, respectively.
`Cc1cc(C)cc(C(C)(C)CN(CC(=O)NC(CCCN=C(N)N)B(O)O)C(=O)CCc2ccccc2)c1` (stereo unspecified) showed an IC50 in [2] of 320 nM. Also, the Ki at Prothrombin stood at 0.3 nM; at Coagulation factor X it was 62 nM. The Ratio in experiment [3] amounted to 1070; in experiment [4] it was 207.
As to `Cc1cc(C)cc(CCN(CC(=O)NC(CCCNC(=N)N)B(O)O)C(=O)CCc2ccccc2)c1` (stereo unspecified), the Ki at Prothrombin is 0.58 nM; on Coagulation factor X it was 15 nM.
With `CC(C)(CN(CC(=O)NC(CCC/N=C/N)B(O)O)C(=O)CCc1ccccc1)c1ccccc1` (stereo unspecified), the Level in the experiment on Rattus norvegicus [1] turned out to be 70. The compound further yielded an IC50 in experiment [2] of 6900 nM. Further, the Ratio in experiment [3] came to 5750; in [4], 67.
`CC(C)(CN(CC(=O)NC(CCCN=C(N)N)B(O)O)C(=O)CCc1ccccc1)c1ccccc1` (stereo unspecified): the BP with Rattus norvegicus [6] is given as greater than 40 mmHg. The compound also registered a Level with Rattus norvegicus [1] of 211. In [2], half-maximal inhibition (IC50) required 130 nM. For the same compound, the Ratio in experiment [3] turned out to be 2170; in experiment [4] it was 1650.
In the experiment on Rattus norvegicus [1], `N=C(N)NCCCC(NC(=O)CN(CC1(c2ccccc2)CC1)C(=O)CCc1ccccc1)B(O)O` (stereo unspecified) came in with a Level of 89. In addition, the IC50 in experiment [2] came out at 540 nM. The figures for the Ki at Prothrombin and at Coagulation factor X were 0.06 nM and 46 nM, respectively. In addition, the BP result in the experiment on Rattus norvegicus [7] is “inactive”. Also, the Ratio worked out at 9000 in experiment [3] and 767 in experiment [4].
For the compound `Cc1cc(C)cc(CCN(CC(=O)NC(CCCNC=N)B(O)O)C(=O)CCc2ccccc2)c1` (stereo unspecified), the Ki on Prothrombin was determined as 0.37 nM; on Coagulation factor X, 30 nM.
For `CC(C)(CN(CC(=O)NC(CCCNC=N)B(O)O)C(=O)CCc1ccccc1)c1ccccc1` (stereo unspecified), the results for the Ki at Prothrombin and at Coagulation factor X were 1.2 nM and 80 nM, respectively.
With `N=CNCCCC(NC(=O)CN(CC1(c2ccccc2)CC1)C(=O)CCc1ccccc1)B(O)O` (stereo unspecified), the figures for the Ki on Prothrombin and at Coagulation factor X were 0.83 nM and 300 nM, respectively.
Consider `N/C=N/CCCC(NC(=O)CN(CC1(c2ccccc2)CC1)C(=O)CCc1ccccc1)B(O)O` (stereo unspecified), for which the Level in the experiment on Rattus norvegicus [1] amounted to 66. For the same compound, the midpoint of inhibition in experiment [2], the IC50, lay at 7700 nM. In addition, the Ratio stood at 9280 in experiment [3] and 361 in [4].
For `N=CNCCCC(NC(=O)CN(CC1(c2ccccc2)CCCC1)C(=O)CCc1ccccc1)B(O)O` (stereo unspecified), the inhibitory constant (Ki) was 3 nM at Prothrombin and 630 nM on Coagulation factor X.
As for `N=CNCCCC(NC(=O)CN(CCc1ccccc1)C(=O)CCc1ccccc1)B(O)O` (stereo unspecified), the Ki was determined as 0.89 nM at Prothrombin and 22 nM on Coagulation factor X.
